This is an account of results in ChEMBL document CHEMBL1255251, “Effects of Escherichia coli lipopolysaccharide on telithromycin pharmacokinetics in rats: inhibition of metabolism via CYP3A” (Antimicrob Agents Chemother, 2008).

The structures appear in SMILES notation.

Data set [1] deals with Rattus norvegicus. The data set is described as follows: AUC in Sprague-Dawley rat at 50 mg/kg, iv pretreated with Escherichia coli lipopolysaccharide (Rvb=1570 +/- 240 ug/min/ml). On the set-up: dose 50 mg/kg, route intravenous. It counts as ADME, organism-based, Plasma. The settings on record: in vivo.
Data set [2] is described as follows: Renal clearance in Sprague-Dawley rat at 50 mg/kg, iv pretreated with Escherichia coli lipopolysaccharide (Rvb=5.29 +/- 0.643 ml/min/kg). The settings on record: in vivo, read-out: CL_renal. On the set-up: dose 50 mg/kg, route intravenous. It is filed as ADME, organism-based, Kidney.
A short description of data set [3]: Oral bioavailability in Sprague-Dawley rat at 50 mg/kg, po pretreated with Escherichia coli lipopolysaccharide (Rvb=38.8%). It counts as ADME, organism-based. The settings on record: in vivo.
The nature of data set [4]: Drug absorption in Sprague-Dawley rat gastrointestinal tract at 50 mg/kg, po after 24 hrs pretreated with Escherichia coli lipopolysaccharide (Rvb=5.73 +/- 4.57 %). It is filed as ADME, organism-based. Also on record: dose 50 mg/kg, route oral.
The nature of data set [5]: Half life in Sprague-Dawley rat at 50 mg/kg, po pretreated with Escherichia coli lipopolysaccharide (Rvb=123 +/- 63.4 min). It counts as ADME, organism-based. On the set-up: dose 50 mg/kg, route oral. The conditions noted are these: in vivo.
Data set [6] is described as follows: Half life in Sprague-Dawley rat at 50 mg/kg, iv pretreated with Escherichia coli lipopolysaccharide (Rvb=159 +/- 56.3 min). It is filed as ADME, organism-based. The settings on record: in vivo. On the set-up: dose 50 mg/kg, route intravenous.
A short description of data set [7]: Drug excretion in Sprague-Dawley rat urine assessed as unchanged drug at 50 mg/kg, po after 24 hrs pretreated with Escherichia coli lipopolysaccharide (Rvb=4.78 +/- 3.28 %). It is filed as ADME, organism-based. The conditions noted are these: read-out: Drug uptake. On the set-up: dose 50 mg/kg, route oral.
Data set [8] relates to Rattus norvegicus. The data set can be described thus: Nonrenal clearance in Sprague-Dawley rat at 50 mg/kg, iv pretreated with Escherichia coli lipopolysaccharide (Rvb=27.2 +/- 5.02 ml/min/kg). Also on record: dose 50 mg/kg, route intravenous. The settings on record: in vivo. It counts as ADME, organism-based.
Data set [9] can be described thus: Cmax in Sprague-Dawley rat at 50 mg/kg, po pretreated with Escherichia coli lipopolysaccharide (Rvb=2.35 +/- 1.19 ug/ml). It is filed as ADME, organism-based. Also on record: dose 50 mg/kg, route oral. The settings on record: in vivo.
Data set [10] can be described thus: Clearance in Sprague-Dawley rat at 50 mg/kg, iv pretreated with Escherichia coli lipopolysaccharide (Rvb=32.4+/- 5.25 ml/min/kg). It counts as ADME, organism-based. Also on record: dose 50 mg/kg, route intravenous. The settings on record: in vivo.
Data set [11] is described as follows: Apparent volume of distribution in Sprague-Dawley rat at 50 mg/kg, iv pretreated with Escherichia coli lipopolysaccharide (Rvb=4,950 +/- 1160 ml/kg). It is filed as ADME, organism-based. Also on record: dose 50 mg/kg, route intravenous. The settings on record: in vivo, read-out: Vdss(app).
A short description of data set [12]: Tmax in Sprague-Dawley rat at 50 mg/kg, po pretreated with Escherichia coli lipopolysaccharide (Rvb=180 min). The conditions noted are these: in vivo. On the set-up: dose 50 mg/kg, route oral. It counts as ADME, organism-based.
Data set [13] in a line: Renal clearance in Sprague-Dawley rat at 50 mg/kg, po pretreated with Escherichia coli lipopolysaccharide (Rvb=4.21 +/- 1.81 ml/min/kg). Also on record: dose 50 mg/kg, route oral. It counts as ADME, organism-based, Kidney. The settings on record: in vivo, read-out: CL_renal.
A short description of data set [14]: Drug absorption in Sprague-Dawley rat gastrointestinal tract at 50 mg/kg, iv after 24 hrs pretreated with Escherichia coli lipopolysaccharide (Rvb=8.53 +/- 4.64 %). It counts as ADME, organism-based. On the set-up: dose 50 mg/kg, route intravenous.
Data set [15] in a line: Drug excretion in Sprague-Dawley rat urine assessed as unchanged drug at 50 mg/kg, iv after 24 hrs pretreated with Escherichia coli lipopolysaccharide (Rvb=16.5 +/- 2.32 %). It is filed as ADME, organism-based. On the set-up: dose 50 mg/kg, route intravenous. The settings on record: read-out: Drug uptake.
The subject of data set [16] is Rattus norvegicus. The data set is described as follows: AUC in Sprague-Dawley rat at 50 mg/kg, po pretreated with Escherichia coli lipopolysaccharide (Rvb=609 +/- 323 ug/min/ml). It counts as ADME, organism-based, Plasma. Also on record: dose 50 mg/kg, route oral. The conditions noted are these: in vivo.

As for `CC[C@H]1OC(=O)[C@H](C)C(=O)[C@H](C)[C@@H](O[C@@H]2O[C@H](C)C[C@H](N(C)C)[C@H]2O)[C@](C)(OC)C[C@@H](C)C(=O)[C@H](C)[C@H]2N(CCCCn3cnc(-c4cccnc4)c3)C(=O)O[C@]12C` [TELITHROMYCIN], the values for the AUC in data set [1] and in data set [16] were 2880 µg/min/mL and 1460 µg/min/mL, respectively. Besides, the figures for the CL renal in [2] and in data set [13] were 4.27 mL/min/kg and 3.17 mL/min/kg, respectively. Also, the bioavailability in [3] came out at 50.7%. Besides, the results for the percent of dose recovered from gastrointestinal tract at 24 h in data set [4] and in data set [14] were 9.63% and 5.31%, respectively. For the same molecule, the half-life in [5] is 2.33 h; in data set [6], 2.55 h. The dose excreted at 24 h worked out at 9.54% in [7] and 23.8% in data set [15]. Further, the CL in [8] is 15.1 mL/min/kg. The maximum concentration (Cmax) in data set [9] was 5030 ng/mL. The clearance in data set [10] worked out at 19.4 mL/min/kg. In data set [11], the Vd was determined as 3.28 L/kg. Further, the Tmax in data set [12] was 3 h.
